Results published in patent publication US7045528B2, “Benzofused heterozryl amide derivatives of thienopyridines useful as therapeutic agents, pharmaceutical compositions including the same, and methods for their use” (Agouron Pharmaceuticals, Inc., priority 2002, dated 2006).
Read-outs that look alike come from different tables or passages of the source.

Target: T1, unphosphorylated VEGF-R2Δ50 (FLVK) (Homo sapiens, UniProt P35968, DEL940-989/E990V)
T1 construct: VEGF-R2Δ50 contains residues 806–939 and 990–1171; made in house; host or cells: baculovirus/insect cell system
Test: VEGF-R2 coupled spectrophotometric assay, unphosphorylated VEGF-R2Δ50 (FLVK)
Format: biochemical
Details: for inhibition at 0.05 µM: read-out: FLVK (% inh @ 50 nM)
Text: VEGF-R2 Construct for Assay:
This construct determines the ability of a test compound to inhibit tyrosine kinase activity. A construct (VEGF-R2Δ50) of the cytosolic domain of human vascular endothelial growth factor receptor 2 (VEGF-R2) lacking the 50 central residues of the 68 residues of the kinase insert domain was expressed in a baculovirus/insect cell system. Of the 1356 residues of full-length VEGF-R2, VEGF-R2Δ50 contains residues 806–939 and 990–1171, and also one point mutation (E990V) within the kinase insert domain relative to wild-type VEGF-R2. Autophosphorylation of the purified construct was performed by incubation of the enzyme at a concentration of 4 μM in the presence of 3 mM ATP and 40 mM MgCl2 in 100 mM HEPES, pH 7.5, containing 5% glycerol and 5 mM DTT, at 4° C. for 2 h. […] See Parast et al., Biochemistry, 37, 16788–16801 (1998).
Coupled Spectrophotometric (FLVK-P) Assay
The production of ADP from ATP that accompanies phosphoryl transfer was coupled to oxidation of NADH using phosphoenolpyruvate (PEP) and a system having pyruvate kinase (PK) and lactic dehydrogenase (LDH). The oxidation of NADH was monitored by following the decrease of absorbance at 340 nm (e340=6.22 cm^−1 mM^−1) using a Beckman DU 650 spectrophotometer. Assay conditions for phosphorylated VEGF-R2Δ50 (indicated as FLVK-P in the tables below) were the following: 1 mM PEP; 250 μM NADH; 50 units of LDH/mL; 20 units of PK/mL; 5 mM DTT; 5.1 mM poly(E4Y1); 1 mM ATP; and 25 mM MgCl2 in 200 mM HEPES, pH 7.5. Assay conditions for unphosphorylated VEGF-R2Δ50 (indicated as FLVK in the tables) were the following: 1 mM PEP; 250 μM NADH; 50 units of LDH/mL; 20 units of PK/mL; 5 mM DTT; 20 mM poly(E4Y1); 3 mM ATP; and 60 mM MgCl2 and 2 mM MnCl2 in 200 mM HEPES, pH 7.5. Assays were initiated with 5 to 40 nM of enzyme. Ki values were determined by measuring enzyme activity in the presence of varying concentrations of test compounds. […] The binding inhibitions were fitted to equation as described by Morrison. The data were analyzed using Enzyme Kinetic and Kaleidagraph software.

[1] = 50 nM compound, unphosphorylated VEGF-R2Δ50

T1 sequence (P35968 with tags, fused parts or gaps DEL940-989/E990V limits assumed): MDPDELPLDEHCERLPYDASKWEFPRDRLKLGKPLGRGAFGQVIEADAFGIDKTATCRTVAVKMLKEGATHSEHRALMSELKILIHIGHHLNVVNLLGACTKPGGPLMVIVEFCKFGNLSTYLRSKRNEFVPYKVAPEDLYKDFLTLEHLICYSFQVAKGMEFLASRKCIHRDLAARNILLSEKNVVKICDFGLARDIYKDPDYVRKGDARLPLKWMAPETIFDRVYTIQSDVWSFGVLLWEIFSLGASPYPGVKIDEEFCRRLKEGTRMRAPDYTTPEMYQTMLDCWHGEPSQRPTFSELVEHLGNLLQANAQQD

| inhibition at 0.05 µM [1] [%] | Ki (unphosphorylated VEGF-R2Δ50) [µM] | Compound | inhibition at 0.05 µM [%] |
| --- | --- | --- | --- |
| 4 |  | CNC(=O)c1c(C)sc2cc(Oc3ccnc4cc(CN(C)C)sc34)ccc12 [Example 116, 6-(2-[Dimethylaminomethyl]thieno[3,2-b]pyridin-7-yloxy)-2-methylbenzo[b]thiophene-3-carboxylic acid methylamide] |  |
| 82 |  | Cc1oc2cc(Oc3ccnc4ccsc34)ccc2c1C(=O)NCCOC(C)C [Example 109, 2-Methyl-6-(thieno[3,2-b]pyridin-7-yloxy)-benzofuran-3-carboxylic acid (2-isopropoxy-ethyl)-amide] |  |
| 17 | 0.0367 | Cc1oc2cc(Oc3ccnc4ccsc34)ccc2c1C(=O)NCc1ccncc1 [Example 107, 2-Methyl-6-[Thieno(3,2-b)pyridin-7-yloxy]benzofuran-3-carboxylic acid 2-[(4-pyridyl)-methyl] amide] |  |
| 16 | 0.119 | CNC(=O)c1c(C)sc2cc(Oc3ccnc4cc(COCCN5CCCC5)sc34)ccc12 [Example 114, 2-Methyl-6(2-[2-(pyrrolidin-1-yl)ethoxymethyl]thieno[3,2-b]pyridin-7-yloxy)benzo[b]thiophene-3-carboxylic acid methylamide] |  |
| 4 |  | CNC(=O)c1c(C)sc2cc(Oc3ccnc4cc(CN5CCCC5)sc34)ccc12 [Example 115, 2-Methyl-6-(2-[pyrrolidin-1-ylmethyl]thieno[3,2-b]pyridin-7-yloxy)benzo[b]thiophene-3-carboxylic acid methylamide] |  |
| 61 |  | Cc1oc2cc(Oc3ccnc4ccsc34)ccc2c1C(=O)NCCc1ccc(S(N)(=O)=O)cc1 [Example 108, 2-Methyl-6-(thieno[3,2-b]pyridin-7-yloxy)-benzofuran-3-carboxylic acid [2-(4-sulfamoyl-phenyl)-ethyl]-amide] |  |
| 40 |  | Cc1cc2nccc(Oc3ccc4c(C(=O)NCCN5CCOCC5)c(C)sc4c3)c2s1 [Example 139, 2-Methyl-6-(2-methylthieno[3,2-b]pyridin-7-yloxy)benzo[b]thiophene-3-carboxylic acid (2-morpholin-4-yl-ethyl)-amide] |  |
| 19 | 0.078 | CNC(=O)c1cn(C)c2cc(Oc3ccnc4cc(-c5nccn5C)sc34)ccc12 [Example 23, 1-Methyl-6-[2-(1-methyl-1H-imidazol-2-yl)-thieno[3,2-b]pyridin-7-yloxy]-1H-indole-3-carboxylic acid methylamide] |  |
| 41 | 0.0115 | CNC(=O)c1c(C)n(C)c2cc(Oc3ccnc4cc(C(=O)N5C[C@H](OC)[C@H](OC)C5)sc34)ccc12 [Example 36, 6-[2-(3,4-Dimethoxy-pyrrolidine-1-carbonyl)-thieno[3,2-b]pyridin-7-yloxy]-1,2-dimethyl-1H-indole-3-carboxylic acid methylamide] |  |
| 36 | 0.00626 | CNC(=O)c1c(C(F)(F)F)n(C)c2cc(Oc3ccnc4cc(-c5nccn5C)sc34)ccc12 [Example 76, 1-Methyl-6-[2-(1-methyl-1H-imidazol-2-yl)-thieno[3,2-b]pyridin-7-yloxy]-2-trifluoromethyl-1H-indole-3-carboxylic acid methylamide] |  |
|  |  | CCn1c(C)c(C(=O)NC)c2ccc(Oc3ccnc4cc(C(=O)N5CCC5)sc34)cc21 [Example 71, 6-[2-(Azetidine-1-carbonyl)thieno[3,2-b]pyridin-7-yloxy]-1-ethyl-2-methyl-1H-indole-3-carboxylic acid methylamide] | 5 |
| 37 |  | CCC(=O)c1cc2nccc(Oc3ccc4c(C(=O)NCCCN5CCOCC5)c(C)n(C)c4c3)c2s1 [Example 68, 1,2-Dimethyl-6-(2-propionyl-thieno[3,2-b]pyridin-7-yloxy)-1H-indole-3-carboxylic acid (3-morpholin-4-yl-propyl)-amide] |  |
| 25 | 0.0302 | CNC(=O)c1c(C)n(C)c2cc(Oc3ccnc4cc(C(=O)N(C)CCO)sc34)ccc12 [Example 31] |  |
| 41 | 0.0197 | CNC(=O)c1c(C)n(C)c2cc(Oc3ccnc4cc(-c5nc(C(C)(C)O)co5)sc34)ccc12 [Example 47, 6-{2-[4-(1-Hydroxy-1-methyl-ethyl)-oxazol-2-yl]-thieno[3,2-b]pyridin-7-yloxy}1,2-dimethyl-1H-indole-3-carboxylic acid methylamide] |  |
| 38 | 0.0258 | CNC(=O)c1cn(C)c2cc(Oc3ccnc4cc(C(=O)N5CC[C@@H](OC)C5)sc34)ccc12 [Example 22, 6-[2-(3-methoxypyrrolidine-1-carbonyl)-thieno[3,2-b]pyridin-7-yloxy]-1-methyl-1H-indole-3-carboxylic acid methylamide] |  |
| 91 |  | Cc1oc2cc(Oc3ccnc4ccsc34)ccc2c1C(=O)NCCCN1CCOCC1 [Example 112, 2-Methyl-6-(thieno[3,2-b]pyridin-7-yloxy)benzofuran-3-carboxylic acid (3-morpholin-4-ylpropyl)-amide] |  |
| 90 |  | Cc1cc2nccc(Oc3ccc4c(C(=O)NCCCN5CCOCC5)c(C)sc4c3)c2s1 [Example 140, 2-Methyl-6-(2-methylthieno[3,2-b]pyridin-7-yloxy)benzo[b]thiophene-3-carboxylic acid (3-morpholin-4ylpropyl)-amide] |  |
| 58 | 0.0125 | Cc1c(C(=O)NCC(C)C)c2ccc(Oc3ccnc4cc(-c5nccs5)sc34)cc2n1C [Example 67, 1,2-Dimethyl-4(2-thiazol-2-yl-thieno[3,2-b]pyridin-7-yloxy)-1 indole-3-carboxylic acid isobutyl-amide] |  |
| 96 |  | Cc1cc(NC(=O)c2c(C)oc3cc(Oc4ccnc5ccsc45)ccc23)n[nH]1 [Example 111, 2-Methyl-6-(thieno[3,2-b]pyridin-7-yloxy)-benzofuran-3-carboxylic acid (5-methyl-1H-pyrazol-3-yl)-amide] |  |
| 6 | 0.0888 | CNC(=O)c1c(C)n(C)c2cc(Oc3ccnc4cc(C(=O)N(C)CCN(C)C)sc34)ccc12 [Example 29, N-[2-(Dimethylamino)ethyl]-7-({1,2-dimethyl-3-[(methylamino)carbonyl]-1H-indol-6-yl}oxy)-N-methylthieno[3,2-b]pyridine-2-carboxamide] |  |
| 43 | 0.0131 | CNC(=O)c1cn(C)c2cc(Oc3ccnc4cc(C(=O)N5CC[C@@H](O)C5)sc34)ccc12 [Example 21, 6-{2-[3-(R)-hydroxy-pyrrolidine-1-carbonyl]thieno[3,2-b]pyridin-7-yloxy}-1-methyl-1H-indole-3-carboxylic acid methylamide] |  |
| 48 | 0.0103 | CCc1c(C(=O)NC)c2ccc(Oc3ccnc4cc(C(=O)N5CC[C@@H](O)C5)sc34)cc2n1C [Example 73, 2-Ethyl-6-[2-(3-hydroxy-pyrrolidine-1-carbonyl)-thieno[3,2-b]pyridin-7-yloxy]-1-methyl-1H-indole-3-carboxylic acid methylamide] |  |
|  |  | CCn1c(C)c(C(=O)NC)c2ccc(Oc3ccnc4cc(-c5nccn5C)sc34)cc21 [Example 72, 1-Ethyl-2-methyl-6-[2-(1-methyl-1H-imidazol-2-yl)-thieno[3,2-b]pyridin-7-yloxy]-1H-indole-3-carboxylic acid methylamide] | 2 |
| 13 | 0.0483 | CNC(=O)c1c(C(C)C)oc2cc(Oc3ccnc4cc(C(=O)N5CC[C@@H](OC)C5)sc34)ccc12 [Example 15, 6-(2-[3-methoxypyrrolidine-1-carbonyl]thieno[3,2-b]pyridin-7-yloxy)-2-(1-methylethyl)benzofuran-3-carboxylic acid methylamide] |  |
| 51 | 0.00961 | CCc1oc2cc(Oc3ccnc4cc(C(=O)N5CCC[C@H]5COC)sc34)ccc2c1C(=O)NC [Example 96, 2-ethyl-6-(2-[(S)-2-(methoxymethyl)pyrrolidine-1-carbonyl]thieno[3,2-b]pyridin-7-yloxy)-benzofuran-3-carboxylic acid methyl amide] |  |
| 21 |  | Cc1oc2cc(Oc3ccnc4ccsc34)ccc2c1C(=O)NCCC1CCCN1C (stereo not shown) [Example 110, 2-Methyl-6-(thieno[3,2-b]pyridin-7-yloxy)-benzofuran-3-carboxylic acid [2-(1-methyl-pyrrolidin-2-yl)-ethyl]-amide] |  |
